# Data from patent publication US12502361B2, “Method for treating dengue virus infection” (priority 2021, dated 2025).
# Where two headings read alike, the source gives them in different places.
# Legend:
# endosomal acidification = assay: Acridine orange staining of endosomal acidification in DENV-infected BHK-21 cells; type: cell-based, hamster; details: BHK-21 cells pretreated 1 h, DENV infection 2 h
# Protocol: Hoechst was used to label nuclear DNA. Scale bar: 100 μm.
# Cells were washed with HBSS (Thermo Fisher Scientific) once and then stained with acridine orange agent (Sigma-Aldrich) and Hoechst 33258 (Thermo Fisher Scientific) in an incubator at 37° C. in 5% CO2. After 45 minutes, the cells were washed with HBSS once and rinsed with HBSS. Subsequently, cells were visualized with a fluorescence microscope (EVOS). Hoechst 33258 was used for nuclear staining.
# The endosomal acidification step is critical for DENV uncoating to release the viral genome for further replication in the cytoplasm (Solomon et al., J Infect, 42, 2001, 104-115). Therefore, the pH-sensitive dye acridine orange (AO) was used to explore whether propofol affects the early stages of DENV infection accordingly (Kao et al., PLoS Negl Trop Dis, 12, 2018, e0006715).
# viral dsRNA = assay: dsRNA immunostaining in DENV2-infected BHK-21 cells; type: cell-based, Dengue virus serotype 2; details: BHK-21 cells pretreated 1 h, DENV2 infection 6 h
# Protocol: DAPI was used to label nuclear DNA. […] Scale bar: 100 μm.
# Cells were washed with ice-cold PBS 3 times and fixed with 4% paraformaldehyde (Sigma-Aldrich) at room temperature for 15 minutes. Then, the cells were washed 3 times with ice-cold PBS and permeabilized with permeabilization buffer (PBS containing 1% Triton X-100) at room temperature for 5 minutes. The cells were then washed 3 times with ice-cold PBS and immunoblocked with blocking buffer (PBS containing 1% BSA and 0.01% Triton X-100) at 4° C. for 30 minutes. Next, the cells were washed 3 times with ice-cold PBS and immunohybridized with mouse anti-dsRNA J2 primary antibody at 4° C. overnight. Subsequently, the cells were washed 3 times with ice-cold PBS and stained with Alexa Fluor 488-conjugated goat anti-mouse antibody (Thermo Fisher Scientific) at room temperature for 15 minutes. The cells were washed 3 times with ice-cold PBS and then visualized with fluorescence or confocal microscopy. DAPI (Sigma-Aldrich) was used for nuclear staining.
# Following endocytosis, the viral genome is released into the cytoplasm and undergoes genome replication (Solomon et al., J Infect, 42, 2001, 104-115).
# BHK-21 cells = details: propofol 1 to 50 μg/ml, 24 h
# Protocol: Quantitative data are presented as the mean±SD of at least three independent experiments (n=3). ***p<0.001. ns, not significant.
# According to the manufacturer's instructions, cell cytotoxicity was assessed using Cytotoxicity Detection Kit assays (Roche Diagnostics, Lewes, UK).
# DENV2 = details: BHK-21 cells pretreated 1 h, DENV2 MOI=1, 24 h; doses of 5, 10, 25 and 50 μg/ml
# Protocol: Baby hamster kidney (BHK)-21 fibroblasts (ATCC, CCL10) were maintained in Dulbecco's modified Eagle's medium (DMEM; Thermo Fisher Scientific) containing 10% heat-inactivated fetal bovine serum (FBS, Biological Industries) and 1% penicillin-streptomycin (Thermo Fisher Scientific) at 37° C. in 5% CO2. […] The Aedes albopictus clone mosquito C6/36 cells (ATCC, CRL1660) were maintained in Minimum Essential Medium (MEM; Thermo Fisher Scientific) containing 10% heat-inactivated FBS, 1% penicillin-streptomycin (Thermo Fisher Scientific), 1% sodium pyruvate (Cat#11360-070, Thermo Fisher Scientific), 1% 4-(2-hydroxyethyl) piperazineethanesulfonic acid (HEPES; Cat#15630-080, Thermo Fisher Scientific) and 1% nonessential amino acids (NEAA; Cat#11140-035, Thermo Fisher Scientific) at 28° C. in 5% CO2. Dengue virus serotype 2 (DENV2, strain PL046) was obtained from Center Disease Control in Taiwan and propagated in a C6/36 cell monolayer at a multiplicity of infection (MOI) of 0.01. After incubation (28° C. in 5% CO2) for 5 days, the viral supernatants were collected and filtered with a 0.22 μm filter and then stored at −80° C. until use. Viral titers were determined by plaque assay using BHK-21 cells.
# BHK-21 cells were grown in a monolayer in a 12-well plate at 7×10^4 cells/well. […]
# [1] = test system: luciferase-expressing DENV replicon; details: BHK-21-SGR replicon cells treated with or without propofol
# Protocol: Baby hamster kidney (BHK)-21 fibroblasts (ATCC, CCL10) were maintained in Dulbecco's modified Eagle's medium (DMEM; Thermo Fisher Scientific) containing 10% heat-inactivated fetal bovine serum (FBS, Biological Industries) and 1% penicillin-streptomycin (Thermo Fisher Scientific) at 37° C. in 5% CO2. BHK-21 cells harboring a luciferase-expressing DENV replicon (BHK-D2-Fluc-SGR-Neo-1) were maintained in DMEM with 10% heat-inactivated FBS, 1% penicillin-streptomycin, and 0.4 mg/ml G418 agent (Cat# A1720, Sigma-Aldrich) at 37° C. in 5% CO2.
# BHK-D2-Fluc-SGR-Neo-1 cells (replicons) were seeded in 96-well plates at 3,000 cells/well overnight.
# To assess propofol's inhibitory activity on DENV infection, we next used BHK-21-SGR cells, a cellular replicon-based reporter assay, to examine propofol's translational targets.
# DENV NS1 = details: BHK-21 cells pretreated 1 h, DENV2 MOI=1, 24 h post-infection
# Protocol: (§1) Cells were collected and extracted with lysis buffer containing a protease inhibitor cocktail (Sigma-Aldrich). The processed proteins were separated by 10% SDS polyacrylamide gel electrophoresis followed by transfer to a polyvinylidene difluoride (PVDF) membrane (Millipore). Then, the PVDF membrane was blocked with 5% nonfat milk in 0.05% Tween-20-containing Tris-buffer-based saline (TBS-T) at room temperature for 1 h. Next, the membrane was washed three times with TBS-T buffer and immunohybridized with the indicated primary antibodies at 4° C. overnight. Then, the membrane was washed with TBS-T buffer three times, followed by incubation with the indicated HRP-conjugated secondary antibodies at room temperature for 1 h. The antibody-protein complexes on the PVDF membrane were detected using an ECL Western blot detection kit (PerkinElmer). The signals of the identified proteins were captured with a film exposure system.
# TNF-α [2] = details: RAW 264.7 cells, propofol 10 or 25 μg/ml, DENV2 MOI=10, 24 h
# Protocol: (§2) RAW 264.7 cells were pretreated without or with propofol (10 or 25 μg/ml) followed by infection with DENV2 (MOI=10) for 24 h. […] Quantitative data are presented as the mean±SD of the experiments (n=3). *p<0.05; ***p<0.001.
# According to the manufacturer's instruction, samples were harvested, and the concentration of mouse TNFα was determined using ELISA kit (Cat#88-7324-88, eBioscience).
# (§3) In this study, RAW 264.7 cells were pretreated with or without propofol (10 or 25 μg/ml) followed by infection with DENV for 24 h.
# phospho-STAT1 and STAT1 = details: RAW 264.7 cells, propofol 10 or 25 μg/ml, DENV2 MOI=10, 24 h
# Protocol: as §2, §1, §3
# TNF-α [3] = details: CoCl2-treated hypoxic BV2 microglia; cited from earlier work
# TNF-α [4] = details: cecal ligation and puncture-administrated rat liver; cited from earlier work
SMILES,endosomal acidification (acridine orange staining) (endosomal acidification),"viral dsRNA expression (immunostaining, MFI) (viral dsRNA)",cytotoxicity (LDH assay) (BHK-21 cells),"DENV virion release (viral titer, plaque assay) (DENV2)",luciferase activity of replicons (viral protein translation) [1],viral NS1 protein expression (western blot) (DENV NS1),mouse TNF-α production (ELISA) (TNF-α [2]),protein expressions of phospho-STAT1 and STAT1 (western blot) (phospho-STAT1 and STAT1),gene and cytokine productions of TNF-α (TNF-α [3]),gene and cytokine productions of TNF-α (TNF-α [4])
"CC(C)c1cccc(C(C)C)c1O [propofol, 2,6-diisopropylphenol]",does not affect endosomal acidification,does not affect blocking DENV viral dsRNA replication,did not cause cytotoxicity,significantly (p<0.001) reduced DENV virion release,no remarkable difference,decreased in a dose-dependent manner,reduced the cytokine levels in a dose-dependent manner,inhibited by propofol treatment,reduces both the gene and cytokine productions of TNF-α,reduces both the gene and cytokine productions of TNF-α
"CO/C1=C\C(C)=C\[C@@H](C)[C@@H](O)[C@@H](C)C/C(C)=C/C=C/[C@H](OC)[C@@H]([C@@H](C)[C@@H](O)[C@H](C)[C@@]2(O)C[C@@H](O)[C@H](C)[C@@H](C(C)C)O2)OC1=O [Baf A1, bafilomycin A1]",endosome acidification was blocked,reduced dsRNA expression,–,–,–,–,–,–,–,–
